Several values for one entry are separate records, joined by “and”; a condition that tells them apart may be missing. Identical values can stand only once.
Test system: BDF1 mice, Adenocarcinoma 755 s.c., tumor weight T/C
Assay: NCI In Vivo Anticancer Drug Screen. Data for tumor model Adenocarcinoma 755 (subcutaneous) in B6D2F1 (BDF1) mice
Conditions: endpoint: mean tumor weight, higher = larger tumour
Procedure, shortened: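 Tumor-bearing mice receive test compound while controls get vehicle alone. Antitumor effect is scored from survival or tumor dimensions as a T/C quotient.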

[1] = dose: 50.0 mg/kg/injection, schedule: Q01DX011 (ip), vehicle: methylcellulose (MC)
[2] = dose: 150.0 mg/kg/injection, schedule: Q01DX011 (ip), vehicle: methylcellulose (MC)
[3] = dose: 200.0 mg/kg/injection, schedule: Q01DX011 (ip), vehicle: methylcellulose (MC)
[4] = dose: 12.5 mg/kg/injection, schedule: Q01DX011 (ip), vehicle: methylcellulose (MC)
[5] = dose: 1.0 mg/kg/injection, schedule: Q01DX011 (ip), vehicle: carboxymethylcellulose (CMC)
[6] = dose: 14.0 mg/kg/injection, schedule: Q01DX011 (ip), vehicle: carboxymethylcellulose (CMC)
[7] = dose: 28.0 mg/kg/injection, schedule: Q01DX011 (ip), vehicle: carboxymethylcellulose (CMC)

CC(C)Cn1cnc2c(SCc3ccc(Br)cc3)nc(N)nc21
T/C [1]: 40 % of control | T/C [2]: 4 % of control | T/C [3]: 1 % of control | T/C (dose: 400.0 mg/kg/injection, schedule: Q01DX011 (ip), vehicle: methylcellulose (MC)): 2 % of control

NS(=O)(=O)c1ncnc2nc[nH]c12
T/C (dose: 3.1 mg/kg/injection, schedule: Q01DX011 (ip), vehicle: methylcellulose (MC)): 105 % of control | T/C (dose: 6.2 mg/kg/injection, schedule: Q01DX011 (ip), vehicle: methylcellulose (MC)): 78 % of control | T/C [4]: 15 % of control | T/C (dose: 25.0 mg/kg/injection, schedule: Q01DX011 (ip), vehicle: methylcellulose (MC)): 3 % of control and 9 % of control

CC(=O)NC1=C(N2CC2)C(=O)C(NC(C)=O)=C(N2CC2)C1=O
T/C (dose: 0.02 mg/kg/injection, schedule: Q01DX011 (ip), vehicle: carboxymethylcellulose (CMC)): 91 % of control | T/C (dose: 0.02 mg/kg/injection, schedule: Q01DX011 (ip), vehicle: methylcellulose (MC)): 71 % of control | T/C (dose: 0.03 mg/kg/injection, schedule: Q01DX011 (ip), vehicle: carboxymethylcellulose (CMC)): 65 % of control | T/C (dose: 0.05 mg/kg/injection, schedule: Q01DX011 (ip), vehicle: methylcellulose (MC)): 69 % of control | T/C (dose: 0.06 mg/kg/injection, schedule: Q01DX011 (ip), vehicle: carboxymethylcellulose (CMC)): 51 % of control | T/C (dose: 0.1 mg/kg/injection, schedule: Q01DX011 (ip), vehicle: methylcellulose (MC)): 50 % of control | T/C (dose: 0.12 mg/kg/injection, schedule: Q01DX011 (ip), vehicle: carboxymethylcellulose (CMC)): 21 % of control

CCCCCCCCOc1nc(N)nc2n[nH]nc12
T/C (dose: 50.0 mg/kg/injection, schedule: Q01DX011 (ip), vehicle: carboxymethylcellulose (CMC)): 112 % of control | T/C (dose: 100.0 mg/kg/injection, schedule: Q01DX011 (ip), vehicle: carboxymethylcellulose (CMC)): 69 % of control | T/C (dose: 200.0 mg/kg/injection, schedule: Q01DX011 (ip), vehicle: carboxymethylcellulose (CMC)): 57 % of control

O=C(O)CCCc1ccc(N(CCCl)CCCl)cc1
T/C (dose: 0.5 mg/kg/injection, schedule: Q01DX011 (ip), vehicle: carboxymethylcellulose (CMC)): 93 % of control | T/C [5]: 43 % of control | T/C (dose: 1.25 mg/kg/injection, schedule: Q01DX011 (ip), vehicle: methylcellulose (MC)): 31 % of control | T/C (dose: 1.81 mg/kg/injection, schedule: Q01DX011 (ip), vehicle: carboxymethylcellulose (CMC)): 60 % of control | T/C (dose: 1.94 mg/kg/injection, schedule: Q01DX011 (ip), vehicle: carboxymethylcellulose (CMC)): 38 % of control | T/C (dose: 2.0 mg/kg/injection, schedule: Q01DX011 (ip), vehicle: saline): 99 % of control | T/C (dose: 2.5 mg/kg/injection, schedule: Q01DX011 (ip), vehicle: methylcellulose (MC)): 89 % of control | T/C (dose: 3.63 mg/kg/injection, schedule: Q01DX011 (ip), vehicle: carboxymethylcellulose (CMC)): 34 % of control | T/C (dose: 3.88 mg/kg/injection, schedule: Q01DX011 (ip), vehicle: carboxymethylcellulose (CMC)): 37 % of control | T/C (dose: 4.0 mg/kg/injection, schedule: Q01DX011 (ip), vehicle: saline): 49 % of control | T/C (dose: 5.0 mg/kg/injection, schedule: Q01DX011 (ip), vehicle: methylcellulose (MC)): 33 % of control | T/C (dose: 5.8 mg/kg/injection, schedule: Q01DX011 (ip), vehicle: carboxymethylcellulose (CMC)): 41 % of control | T/C (dose: 6.2 mg/kg/injection, schedule: Q01DX011 (ip), vehicle: carboxymethylcellulose (CMC)): 75 % of control | T/C (dose: 6.25 mg/kg/injection, schedule: Q01DX011 (ip), vehicle: methylcellulose (MC)): 26 % of control | T/C (dose: 7.25 mg/kg/injection, schedule: Q01DX011 (ip), vehicle: carboxymethylcellulose (CMC)): 30 % of control and 48 % of control | T/C (dose: 7.75 mg/kg/injection, schedule: Q01DX011 (ip), vehicle: carboxymethylcellulose (CMC)): 16 % of control and 29 % of control | T/C (dose: 8.0 mg/kg/injection, schedule: Q01DX011 (ip), vehicle: saline): 37 % of control | T/C (dose: 9.66 mg/kg/injection, schedule: Q01DX011 (ip), vehicle: carboxymethylcellulose (CMC)): 9 % of control | T/C (dose: 10.0 mg/kg/injection, schedule: Q01DX011 (ip), vehicle: methylcellulose (MC)): 10 % of control | T/C (dose: 10.33 mg/kg/injection, schedule: Q01DX011 (ip), vehicle: carboxymethylcellulose (CMC)): 14 % of control | T/C [4]: 5 % of control | T/C (dose: 14.5 mg/kg/injection, schedule: Q01DX011 (ip), vehicle: carboxymethylcellulose (CMC)): 2 % of control and 6 % of control | T/C (dose: 15.5 mg/kg/injection, schedule: Q01DX011 (ip), vehicle: carboxymethylcellulose (CMC)): 4 % of control | T/C (dose: 1812.0 micrograms/kg/injection, schedule: Q01DX011 (ip), vehicle: carboxymethylcellulose (CMC)): 118 % of control | T/C (dose: 3625.0 micrograms/kg/injection, schedule: Q01DX011 (ip), vehicle: carboxymethylcellulose (CMC)): 58 % of control | T/C (dose: 7250.0 micrograms/kg/injection, schedule: Q01DX011 (ip), vehicle: carboxymethylcellulose (CMC)): 59 % of control

CN(C)[C@@H]1C(=O)C(C(=O)NCc2nc3[nH]cnc(=S)c3[nH]2)=C(O)[C@@]2(O)C(=O)C3=C(O)c4c(O)cccc4[C@@](C)(O)[C@H]3C[C@@H]12
T/C [5]: 64 % of control | T/C (dose: 2.0 mg/kg/injection, schedule: Q01DX011 (ip), vehicle: carboxymethylcellulose (CMC)): 44 % of control | T/C (dose: 3.0 mg/kg/injection, schedule: Q01DX011 (ip), vehicle: carboxymethylcellulose (CMC)): 78 % of control | T/C (dose: 4.0 mg/kg/injection, schedule: Q01DX011 (ip), vehicle: carboxymethylcellulose (CMC)): 62 % of control | T/C [6]: 1 % of control and 3 % of control and 5 % of control | T/C [7]: 1 % of control and 2 % of control | T/C (dose: 56.0 mg/kg/injection, schedule: Q01DX011 (ip), vehicle: carboxymethylcellulose (CMC)): 6 % of control

Cn1ccc(N)nc1=O
T/C (dose: 15.0 mg/kg/injection, schedule: Q01DX011 (ip), vehicle: methylcellulose (MC)): 88 % of control | T/C (dose: 31.0 mg/kg/injection, schedule: Q01DX011 (ip), vehicle: methylcellulose (MC)): 108 % of control | T/C (dose: 62.0 mg/kg/injection, schedule: Q01DX011 (ip), vehicle: methylcellulose (MC)): 98 % of control | T/C (dose: 125.0 mg/kg/injection, schedule: Q01DX011 (ip), vehicle: methylcellulose (MC)): 84 % of control

CCCn1cnc2c(SCCc3ccccc3)nc(N)nc21
T/C [1]: 47 % of control | T/C (dose: 100.0 mg/kg/injection, schedule: Q01DX011 (ip), vehicle: methylcellulose (MC)): 15 % of control | T/C [3]: 18 % of control

CC1(c2ccccc2)O[C@@H]2C[C@H]3[C@@H]4CCC5=CC(=O)C=C[C@]5(C)[C@@]4(F)[C@@H](O)C[C@]3(C)[C@]2(C(=O)CO)O1 (stereo partly drawn)
T/C (dose: 2.75 mg/kg/injection, schedule: Q01DX011 (sc), vehicle: steriod suspending solution): 42 % of control and 45 % of control | T/C (dose: 5.5 mg/kg/injection, schedule: Q01DX011 (sc), vehicle: steriod suspending solution): 14 % of control and 24 % of control | T/C (dose: 11.0 mg/kg/injection, schedule: Q01DX011 (sc), vehicle: steriod suspending solution): 2 % of control and 24 % of control

Cc1ccc(N=Nc2c(S(=O)(=O)O)cc3cc(NC(=O)Nc4ccc5c(O)c(N=Nc6ccc7cc(S(=O)(=O)O)ccc7c6)c(S(=O)(=O)O)cc5c4)ccc3c2O)cc1
T/C (dose: 45.0 mg/kg/injection, schedule: Q01DX011 (ip), vehicle: methylcellulose (MC)): 66 % of control | T/C (dose: 65.0 mg/kg/injection, schedule: Q01DX011 (ip), vehicle: methylcellulose (MC)): 42 % of control | T/C [2]: 30 % of control

CC(CNC(=O)CCOS(C)(=O)=O)NC(=O)CCOS(C)(=O)=O (stereo not drawn)
T/C [6]: 71 % of control | T/C [7]: 36 % of control and 60 % of control | T/C (dose: 113.0 mg/kg/injection, schedule: Q01DX011 (ip), vehicle: carboxymethylcellulose (CMC)): 2 % of control (2×) and 3 % of control | T/C (dose: 225.0 mg/kg/injection, schedule: Q01DX011 (ip), vehicle: carboxymethylcellulose (CMC)): 7 % of control

CC1CCC(n2cnc3c(Cl)ncnc32)O1 (stereo not drawn)
T/C (dose: 3.7 mg/kg/injection, schedule: Q01DX011 (ip), vehicle: carboxymethylcellulose (CMC)): 58 % of control | T/C (dose: 7.5 mg/kg/injection, schedule: Q01DX011 (ip), vehicle: carboxymethylcellulose (CMC)): 35 % of control | T/C (dose: 15.0 mg/kg/injection, schedule: Q01DX011 (ip), vehicle: carboxymethylcellulose (CMC)): 63 % of control | T/C (dose: 30.0 mg/kg/injection, schedule: Q01DX011 (ip), vehicle: carboxymethylcellulose (CMC)): 15 % of control and 23 % of control | T/C (dose: 60.0 mg/kg/injection, schedule: Q01DX011 (ip), vehicle: carboxymethylcellulose (CMC)): 5 % of control

— PubChem BioAssay AID180 (DTP/NCI, 2004)
